The assay has as its target T1, myostatin (Homo sapiens, UniProt O14793).
T1 sequence (O14793 267-375): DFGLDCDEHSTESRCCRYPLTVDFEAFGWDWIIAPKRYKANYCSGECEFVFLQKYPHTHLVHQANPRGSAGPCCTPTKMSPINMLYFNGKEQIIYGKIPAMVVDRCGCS
Briefly: cell-based. The settings on record: for remaining activity at 0.3 µM: HEK293, read-out: luciferase activity (relative; myostatin without test sample = 100%). Here is the method:
Human embryo kidney cell HEK293 cells were cultured in a 5% (v/v) CO2 incubator set to 37° C. using DMEM (NACALAI TESQUE, INC.) including a 10% (v/v) fetal bovine serum (FBS) added with a 1% (v/v) non-essential amino acid (Wako Pure Chemical Corporation).
(2) In Vitro Reporter Assay
HEK293 cells were seeded on a D-Lys-corted 96-well transparent plate (Thermo Fisher Scientific Inc.) in an amount of 2.0×10^4 cells (100 μL DMEM+10% (v/v) FBS) per well and were cultured for 24 hours.
The cells were cultured at 37° C. for 24 hours, and after the cell culture solution was replaced with serum-free DMEM, the cells were cultured for 8 hours. Incidentally, pGL4.48 [luc2P/SBE/Hygro] includes firefly luciferase reporter gene luc2P under Smad binding region (SBE) control, and when a signaling pathway by the myostatin is activated, intracellular Smad forms a complex, and the complex is bonded to SBE to promote transcription of luc2P.
The peptide as a test sample was suspended as a stock solution using DMSO to become 10 mM and stored at −30° C. Before 1 hour from addition to the culture medium, the peptide and a myostatin (Merck Millipore Corp.) were suspended with serum-free DMEM and left to stand still at room temperature (25° C.) for 20 minutes. Subsequently, a peptide with an arbitrary final concentration (0.3 to […]) and 8 ng/mL of myostatin were added to the culture medium, and then culturing was performed for 4 hours. After culturing for 4 hours, the culture solution was removed by an aspirator and the cells were washed with 1×PBS. Thereafter, Passive Lysis buffer (Promega Corporation) was added in an amount of 50 μL per well to dissolve the cells. The dissolving solution was subjected to centrifugal separation at 4500 rpm for 6 minutes under the condition of 4° C. After 20 μL of supernatant subjected to centrifugal separation was transferred to a white 96-well plate (Costar), 50 μL of Luciferase Assay Reagent (Promega Corporation) was then added, emission was detected by Luminoskan Ascent (Thermo Fisher Scientific Inc.), and a firefly luciferase activity was measured. Further, after 50 μL of Stop & Glo Buffer (Promega Corporation) was added, emission was detected by Luminoskan Ascent, and a Renilla luciferase activity was measured to be regarded as an internal control.

The record followed here is US11566047B2, “Peptide or pharmaceutically acceptable salt thereof, or prodrug thereof” (TOKYO UNIVERSITY OF PHARMACY & LIFE SCIENCES, priority 2016, dated 2023).

Square brackets hold non-standard residues; d marks the D form. Ends that are not written are not given here. Peptide text beside a SMILES is read from it. * marks the point of attachment. 2Nal = N[C@@H](Cc1ccc2ccccc2c1)C(=O)O; Chg = N[C@H](C(=O)O)C1CCCCC1; X1 = COCCOCCOCCOCCC(=O)*; Ahx = NCCCCCC(=O)O A value given as a limit tells only on which side of the number the result lay.

By IC50 is commonly meant the midpoint of a concentration-inhibition curve. On to `CC[C@H](C)[C@H](NC(=O)[C@H](CCC(N)=O)NC(=O)[C@@H](NC(=O)[C@H](CCCCN)NC(=O)[C@@H](NC(=O)[C@@H](Cc1c[nH]c2ccccc12)NC(=O)[C@H](CCCNC(=N)N)NC(=O)[C@@H](NC(=O)[C@H](Cc1ccc(O)cc1)NC(=O)[C@@H](N)Cc1c[nH]c2ccccc12)[C@@H](C)CC)[C@@H](C)CC)C1CCCCC1)C(=O)N[C@@H](Cc1c[nH]c2ccccc12)C(=O)N[C@@H](CO)C(=O)N[C@@H](CCCCN)C(=O)N[C@H](C(=O)N[C@@H](CCCNC(=N)N)C(=O)N[C@@H](CC(C)C)C(N)=O)C1CCCCC1` [nPDM-86, WYIRwIK-Chg-QIWSK-Chg-RL-NH2] (H-WYIR[dW]IK[Chg]QIWSK[Chg]RL-NH2), for which the remaining activity at 0.3 µM is at most 60%. Further, where the note is “comparison of IC50 values”, the “inhibitory activity relative to 3d” value was “approximately two times higher inhibitory activity”. The half-inhibitory concentration (IC50) (read-out: IC50 value, myostatin inhibitory activity, concentration range of 0.016 to 2 μM) was determined as 131 nM.

For the compound `CC[C@H](C)[C@H](NC(=O)[C@H](CCC(N)=O)NC(=O)[C@@H](NC(=O)[C@H](CCCCN)NC(=O)[C@@H](NC(=O)[C@H](Cc1c[nH]c2ccccc12)NC(=O)[C@H](CCCNC(=N)N)NC(=O)[C@@H](NC(=O)[C@H](Cc1ccc(O)cc1)NC(=O)[C@@H](N)Cc1c[nH]c2ccccc12)[C@@H](C)CC)[C@@H](C)CC)C1CCCCC1)C(=O)N[C@@H](Cc1c[nH]c2ccccc12)C(=O)N[C@@H](CO)C(=O)N[C@@H](CCCCN)C(=O)N[C@@H](CC(C)C)C(=O)N[C@@H](CCCNC(=N)N)C(=O)N[C@@H](CC(C)C)C(N)=O` [nPDM-64, WYIRWIK-Chg-QIWSKLRL-NH2] (H-WYIRWIK[Chg]QIWSKLRL-NH2), the remaining activity at 0.3 µM is at most 60%. Turning to `CC[C@H](C)[C@H](NC(=O)[C@H](CCC(N)=O)NC(=O)[C@@H](NC(=O)[C@H](CCCCN)NC(=O)[C@@H](NC(=O)[C@H](Cc1c[nH]c2ccccc12)NC(=O)[C@H](CCC(N)=O)NC(=O)[C@@H](NC(=O)[C@H](Cc1ccc(O)cc1)NC(=O)[C@@H](N)Cc1c[nH]c2ccccc12)[C@@H](C)CC)[C@@H](C)CC)[C@@H](C)CC)C(=O)N[C@@H](Cc1c[nH]c2ccccc12)C(=O)N[C@@H](CO)C(=O)N[C@@H](CCCCN)C(=O)N[C@@H](CC(C)C)C(=O)N[C@@H](CCCNC(=N)N)C(=O)N[C@@H](CC(C)C)C(N)=O` [nPDM-55/E31Q, WYIQWIKIQIWSKLRL-NH2] (H-WYIQWIKIQIWSKLRL-NH2), the remaining activity at 0.3 µM is at most 60%. In the case of `CC[C@H](C)[C@H](NC(=O)[C@H](CCC(N)=O)NC(=O)[C@@H](NC(=O)[C@H](CCCCN)NC(=O)[C@@H](NC(=O)[C@@H](Cc1c[nH]c2ccccc12)NC(=O)[C@H](CCCNC(=N)N)NC(=O)[C@@H](NC(=O)[C@H](Cc1ccc(O)cc1)NC(=O)[C@H](Cc1c[nH]c2ccccc12)NC(=O)CCCCCNC(=O)CCOCCOCCOCCOC)[C@@H](C)CC)[C@@H](C)CC)C1CCCCC1)C(=O)N[C@@H](Cc1c[nH]c2ccccc12)C(=O)N[C@@H](CO)C(=O)N[C@@H](CCCCN)C(=O)N[C@H](C(=O)N[C@@H](CCCNC(=N)N)C(=O)N[C@@H](CC(C)C)C(N)=O)C1CCCCC1` [PDM-86, R^111-WYIRwIK-Chg-QIWSK-Chg-RL-NH2] ({X1-Ahx}-WYIR[dW]IK[Chg]QIWSK[Chg]RL-NH2), the remaining activity at 0.3 µM is at most 60%. Turning to “WYIEAIKIQILSKLRL-NH2 [d-14, reference compound]”, the myostatin inhibitory activity result (final concentration of 1 μM) is recorded as “a high myostatin inhibitory activity was not recognized”. For `CC[C@H](C)[C@H](NC(=O)[C@H](CCC(N)=O)NC(=O)[C@@H](NC(=O)[C@H](CCCCN)NC(=O)[C@@H](NC(=O)[C@H](Cc1ccc2ccccc2c1)NC(=O)[C@H](CCCNC(=N)N)NC(=O)[C@@H](NC(=O)[C@H](Cc1ccc(O)cc1)NC(=O)[C@@H](N)Cc1ccc(O)cc1)[C@@H](C)CC)[C@@H](C)CC)[C@@H](C)CC)C(=O)N[C@@H](Cc1c[nH]c2ccccc12)C(=O)N[C@@H](CO)C(=O)N[C@@H](CCCCN)C(=O)N[C@@H](CC(C)C)C(=O)N[C@@H](CCCNC(=N)N)C(=O)N[C@@H](CC(C)C)C(N)=O` [nPDM-69, YYIR-Naa-IKIQIWSKLRL-NH2] (H-YYIR[2Nal]IKIQIWSKLRL-NH2), the remaining activity at 0.3 µM was at most 60%. `CC[C@H](C)[C@H](NC(=O)[C@H](CCC(N)=O)NC(=O)[C@@H](NC(=O)[C@H](CCCCN)NC(=O)[C@@H](NC(=O)[C@H](Cc1c[nH]c2ccccc12)NC(=O)[C@H](CCC(=O)O)NC(=O)[C@@H](NC(=O)[C@H](Cc1ccc(O)cc1)NC(=O)[C@@H](N)Cc1c[nH]c2ccccc12)[C@@H](C)CC)[C@@H](C)CC)[C@@H](C)CC)C(=O)N[C@@H](Cc1c[nH]c2ccccc12)C(=O)N[C@@H](CO)C(=O)N[C@@H](CCCCN)C(=O)N[C@@H](CC(C)C)C(=O)N[C@@H](CCCNC(=N)N)C(=O)N[C@@H](CC(C)C)C(N)=O` [nPDM-55, WYIEWIKIQIWSKLRL-NH2] (H-WYIEWIKIQIWSKLRL-NH2): the remaining activity at 0.3 µM was at most 60%. As to `CC[C@H](C)[C@H](NC(=O)[C@H](CCC(N)=O)NC(=O)[C@@H](NC(=O)[C@H](CCCCN)NC(=O)[C@@H](NC(=O)[C@H](Cc1c[nH]c2ccccc12)NC(=O)[C@H](CCCNC(=N)N)NC(=O)[C@@H](NC(=O)[C@H](Cc1ccc(O)cc1)NC(=O)[C@@H](N)Cc1c[nH]c2ccccc12)[C@@H](C)CC)[C@@H](C)CC)C1CCCCC1)C(=O)N[C@@H](Cc1c[nH]c2ccccc12)C(=O)N[C@@H](CO)C(=O)N[C@@H](CCCCN)C(=O)N[C@H](C(=O)N[C@@H](CCCNC(=N)N)C(=O)N[C@@H](CC(C)C)C(N)=O)C1CCCCC1` [nPDM-66, WYIRWIK-Chg-QIWSK-Chg-RL-NH2] (H-WYIRWIK[Chg]QIWSK[Chg]RL-NH2), the remaining activity at 0.3 µM is at most 60%.

For `CC[C@H](C)[C@H](NC(=O)[C@H](CCC(N)=O)NC(=O)[C@@H](NC(=O)[C@H](CCCCN)NC(=O)[C@@H](NC(=O)[C@H](Cc1c[nH]c2ccccc12)NC(=O)[C@H](CCCNC(=N)N)NC(=O)[C@@H](NC(=O)[C@H](Cc1ccc(O)cc1)NC(=O)[C@@H](N)Cc1c[nH]c2ccccc12)[C@@H](C)CC)[C@@H](C)CC)[C@@H](C)CC)C(=O)N[C@@H](Cc1c[nH]c2ccccc12)C(=O)N[C@@H](CO)C(=O)N[C@@H](CCCCN)C(=O)N[C@H](C(=O)N[C@@H](CCCNC(=N)N)C(=O)N[C@@H](CC(C)C)C(N)=O)C1CCCCC1` [nPDM-65, WYIRWIKIQIWSK-Chg-RL-NH2] (H-WYIRWIKIQIWSK[Chg]RL-NH2), the remaining activity at 0.3 µM is at most 60%. `CC[C@H](C)[C@H](NC(=O)[C@H](CCC(N)=O)NC(=O)[C@@H](NC(=O)[C@H](CCCNC(=N)N)NC(=O)[C@@H](NC(=O)[C@@H](Cc1c[nH]c2ccccc12)NC(=O)[C@H](CCCNC(=N)N)NC(=O)[C@@H](NC(=O)[C@H](Cc1ccc(O)cc1)NC(=O)[C@H](Cc1c[nH]c2ccccc12)NC(=O)CCCCCNC(=O)CCOCCOCCOCCOC)[C@@H](C)CC)[C@@H](C)CC)C1CCCCC1)C(=O)N[C@@H](Cc1c[nH]c2ccccc12)C(=O)N[C@@H](CO)C(=O)N[C@@H](CCCNC(=N)N)C(=O)N[C@H](C(=O)N1CCC[C@H]1C(=O)N[C@@H](CC(C)C)C(N)=O)C1CCCCC1` [PDM-80, R^111-WYIRwIR-Chg-QIWSR-Chg-PL-NH2] ({X1-Ahx}-WYIR[dW]IR[Chg]QIWSR[Chg]PL-NH2): the remaining activity at 0.3 µM is at most 60%. “SRIEAIKIQILSKLRL-NH2 (listed as Mus musculus) [mMPS(28-43), reference compound]”: the myostatin inhibitory activity result was “a high myostatin inhibitory activity was not recognized” (final concentration of 1 μM) and “the myostatin inhibitory activity was not recognized” (final concentration of 10 μM).
